Test results reported in US10173991B2, “Sulfone amide linked benzothiazole inhibitors of endothelial lipase” (BRISTOL-MYERS SQUIBB COMPANY, priority 2014, dated 2019).
Each block holds one compound with its values, some of them ahead of it.

Target: Endothelial lipase (EL) (Homo sapiens (Human), UniProt Q9Y5X9)
Experiment: Endothelial lipase (EL) enzymatic assay with fluorescent substrate A10070 in DMPG vesicles
Format: biochemical
How it was run: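 EL from conditioned medium of HT-1080 cells engineered to overexpress endogenous EL; HL partially purified from conditioned medium of HL-overexpressing COS cells. Enzyme preincubated with compound 30 min at 37° C in 50 mM HEPES pH 8.0, 50 mM NaCl, 1 mM CaCl2; DMPG vesicles carrying FRET substrate (0.11 mole fraction) then added.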

Chain of Endothelial lipase (EL) (Q9Y5X9 21-500): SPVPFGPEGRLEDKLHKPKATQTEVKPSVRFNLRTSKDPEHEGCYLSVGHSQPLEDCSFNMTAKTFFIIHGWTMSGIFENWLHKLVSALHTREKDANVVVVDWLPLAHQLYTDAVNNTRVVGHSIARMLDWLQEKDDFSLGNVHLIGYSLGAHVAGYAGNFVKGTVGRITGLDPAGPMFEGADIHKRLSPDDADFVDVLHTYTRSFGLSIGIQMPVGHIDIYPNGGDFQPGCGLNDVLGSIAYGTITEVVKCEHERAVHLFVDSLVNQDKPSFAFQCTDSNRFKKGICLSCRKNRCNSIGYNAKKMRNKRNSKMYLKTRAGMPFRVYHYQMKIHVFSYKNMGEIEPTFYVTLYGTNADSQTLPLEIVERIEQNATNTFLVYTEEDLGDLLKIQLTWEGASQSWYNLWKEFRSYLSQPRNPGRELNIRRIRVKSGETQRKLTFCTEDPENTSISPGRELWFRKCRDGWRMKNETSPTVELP

IC50: 67 nM
Structure (SMILES): COCCS(=O)(=O)C(C(=O)NCC(=O)NC1CC1)c1nc2cc(F)c(-c3ccc(-c4nnnn4C)cc3)cc2s1 (stereo not shown) [Example 594, N-[(cyclopropyl-carbamoyl)methyl]-2-{5-fluoro-6-[4-(1-methyl-1H-1,2,3,4-tetrazol-5-yl)phenyl]-1,3-benzothiazol-2-yl}-2-(2-methoxyethane-sulfonyl)acetamide]

IC50: 36 nM
Structure (SMILES): COCCS(=O)(=O)C(C(=O)NCC(=O)NCCOC(C)C)c1nc2cc(-c3ccc(=O)n(C)c3)c(F)cc2s1 (stereo not shown) [Example 355, 2-[6-fluoro-5-(1-methyl-6-oxo-1,6-dihydropyridin-3-yl)-1,3-benzothiazol-2-yl]-2-(2-methoxyethane-sulfonyl)-N-({[2-(propan-2-yloxy)ethyl]carbamoyl}methyl)acetamide]

IC50: 9 nM
Structure (SMILES): COCCNC(=O)c1cccc(-c2ccc3sc(C(C(=O)NCC(=O)NC4CC4)S(=O)(=O)CCOC)nc3c2)c1 (stereo not shown) [Example 400, 3-[2-({[(cyclopropyl-carbamoyl)methyl]carbamoyl}(2-methoxyethane-sulfonyl)methyl)-1,3-benzothiazol-5-yl]-N-(2-methoxyethyl) benzamide]

IC50: 7 nM
Structure (SMILES): O=C(CNC(=O)C(c1nc2ccc(-c3ccc4c(c3)CN(C3CC3)C4=O)cc2s1)S(=O)(=O)c1ccc(F)cc1)NC1CC1 (stereo not shown) [Example 597, 2-[6-(2-cyclopropyl-1-oxo-2,3-dihydro-1H-isoindol-5-yl)-1,3-benzothiazol-2-yl]-N-[(cyclopropyl-carbamoyl)methyl]-2-(4-fluorobenzene-sulfonyl)acetamide]

IC50: 7 nM
Structure (SMILES): COc1ccc(OCCCS(=O)(=O)C(C(=O)NCC(=O)NC2CC2)c2nc3ccc(-c4ccc(F)nc4)cc3s2)cc1 (stereo not shown) [Example 19, N-[(cyclopropyl-carbamoyl)methyl]-2-[6-(6-fluoropyridin-3-yl)-1,3-benzothiazol-2-yl]-2-[3-(4-methoxyphenoxy)propanesulfonyl] acetamide]

IC50: 2 nM
Structure (SMILES): COC(=O)Nc1ccc(-c2ccc3nc(C(C(=O)NCC(=O)NC4CC4)S(C)(=O)=O)sc3c2)cc1 (stereo not shown) [Example 95, methyl N-{4-[2-({[(cyclopropyl-carbamoyl)methyl]carbamoyl} (methanesulfonyl)methyl)-1,3-benzothiazol-6-yl]phenyl}carbamate]

IC50: 66 nM
Structure (SMILES): COCCS(=O)(=O)C(C(=O)NCC(=O)NC1CC1)c1nc2cc(C(=O)OC(C)(C)C)ccc2s1 (stereo not shown) [Example 427, tert-butyl 2-({[(cyclopropyl-carbamoyl)methyl]carbamoyl}(2-methoxyethane-sulfonyl)methyl)-1,3-benzothiazole-5-carboxylate]

IC50: 6 nM
Structure (SMILES): COC(=O)Nc1ccc(-c2cc3nc(C(C(=O)NCC(=O)NC4CC4)S(=O)(=O)C(C)C)sc3cc2F)cc1 (stereo not shown) [Example 269, methyl N-{4-[2-({[(cyclopropyl-carbamoyl)methyl]carbamoyl} (propane-2-sulfonyl)methyl)-6-fluoro-1,3-benzothiazol-5-yl]phenyl}carbamate]

IC50: 49 nM
Structure (SMILES): COCCS(=O)(=O)C(C(=O)NCC(=O)NC1CC1)c1nc2cc(F)c(-c3ccc(-c4cc(O)n[nH]4)cc3)cc2s1 (stereo not shown) [Example 415, N-[(cyclopropyl-carbamoyl)methyl]-2-{5-fluoro-6-[4-(3-hydroxy-1H-pyrazol-5-yl)phenyl]-1,3-benzothiazol-2-yl}-2-(2-methoxyethane-sulfonyl)acetamide]

IC50: 18 nM
Structure (SMILES): CN(C)C(=O)c1ccc(-c2ccc3nc(C(C(=O)NCC(=O)NC4CC4)S(=O)(=O)Cc4ccc(F)cc4)sc3c2)cc1 (stereo not shown) [Example 214, 4-[2-({[(cyclopropyl-carbamoyl)methyl]carbamoyl}(4-fluorophenyl)methanesulfonyl-methyl)-1,3-benzothiazol-6-yl]-N,N-dimethyl-benzamide]

Continued, compound first:

Structure (SMILES): COCCS(=O)(=O)C(C(=O)NCC(=O)NC1CC1)c1nc2cc(-c3ccc(F)nc3C)ccc2s1 (stereo not shown) [Example 88, N-[(cyclopropyl-carbamoyl)methyl]-2-[5-(6-fluoro-2-methylpyridin-3-yl)-1,3-benzothiazol-2-yl]-2-(2-methoxyethane-sulfonyl) acetamide]
IC50: 82 nM

Structure (SMILES): CS(=O)(=O)C(C(=O)NCC(=O)NC1CC1)c1nc2ccc(-c3ccc(-n4cccn4)cc3)cc2s1 (stereo not shown) [Example 373, N-[(cyclopropyl-carbamoyl)methyl]-2-methanesulfonyl-2-{6-[4-(1H-pyrazol-1-yl)phenyl]-1,3-benzothiazol-2-yl}acetamide]
IC50: 2 nM

Structure (SMILES): CC(=O)NCc1ccc(-c2cc3sc(C(C(=O)NCC(=O)NC4CC4)S(=O)(=O)c4ccc(F)c(F)c4)nc3cc2F)cc1 (stereo not shown) [Example 442, N-[(cyclopropyl-carbamoyl)methyl]-2-(3,4-difluorobenzene-sulfonyl)-2-{6-[4-(acetamidomethyl)phenyl]-5-fluoro-1,3-benzothiazol-2-yl}acetamide]
IC50: 10 nM

Structure (SMILES): CS(=O)(=O)C(C(=O)NCC(=O)NC1CC1)c1nc2cc(F)c(-c3ccc(N4CCCCC4=O)cc3)cc2s1 (stereo not shown) [Example 201, N-[(cyclopropyl-carbamoyl)methyl]-2-{5-fluoro-6-[4-(2-oxopiperidin-1-yl)phenyl]-1,3-benzothiazol-2-yl}-2-methanesulfonyl-acetamide]
IC50: 10 nM

Structure (SMILES): COCCS(=O)(=O)C(C(=O)NCC(=O)NC1CC1)c1nc2c(F)cc(-c3ccc(C(=O)N4CCOCC4)cc3)cc2s1 (stereo not shown) [Example 208, N-[(cyclopropyl-carbamoyl)methyl]-2-{4-fluoro-6-[4-(morpholine-4-carbonyl)phenyl]-1,3-benzothiazol-2-yl}-2-(2-methoxyethane-sulfonyl) acetamide]
IC50: 11 nM

Structure (SMILES): COCCS(=O)(=O)C(C(=O)NCC(=O)NCCOCc1ccccc1)c1nc2ccc(-c3ccc(F)nc3)cc2s1 (stereo not shown) [Example 377, N-({[2-(benzyloxy)ethyl]carbamoyl}methyl)-2-[6-(6-fluoropyridin-3-yl)-1,3-benzothiazol-2-yl]-2-(2-methoxyethane-sulfonyl)acetamide]
IC50: 1 nM

Structure (SMILES): CS(=O)(=O)C(C(=O)NCC(=O)NC1CC1)c1nc2cc(F)c(-c3cccnc3C(F)(F)F)cc2s1 (stereo not shown) [Example 326, N-[(cyclopropyl-carbamoyl)methyl]-2-{5-fluoro-6-[2-(trifluoromethyl)pyridin-3-yl]-1,3-benzothiazol-2-yl}-2-methanesulfonyl-acetamide]
IC50: 65 nM

Structure (SMILES): O=C(CNC(=O)C(c1nc2cc(F)c(-c3ccc(NC(=O)OCC4CC4)cc3)cc2s1)S(=O)(=O)C1CC1)NC1CC1 (stereo not shown) [Example 530, cyclopropylmethyl N-(4-{2-[(cyclopropane-sulfonyl) ({[(cyclopropyl-carbamoyl)methyl]carbamoyl})methyl]-5-fluoro-1,3-benzothiazol-6-yl}phenyl) carbamate]
IC50: 3 nM

Structure (SMILES): COCCN(C)C(=O)c1ccc(-c2ccc3nc(C(C(=O)NCC(=O)NC4CC4)S(=O)(=O)CCOC)sc3c2)cc1F (stereo not shown) [Example 568, 4-[2-({[(cyclopropyl-carbamoyl)methyl]carbamoyl}(2-methoxyethane-sulfonyl)methyl)-1,3-benzothiazol-6-yl]-2-fluoro-N-(2-methoxyethyl)-N-methylbenzamide]
IC50: 9 nM

Structure (SMILES): CC(C)OC(=O)Nc1ccc(-c2cc3sc(C(C(=O)NCC(=O)NC4CC4)S(=O)(=O)C4CC4)nc3cc2F)cc1 (stereo not shown) [Example 542, propan-2-yl N-(4-{2-[(cyclopropane-sulfonyl) ({[(cyclopropyl-carbamoyl)methyl]carbamoyl})methyl]-5-fluoro-1,3-benzothiazol-6-yl}phenyl) carbamate]
IC50: 2 nM

Structure (SMILES): COCCS(=O)(=O)C(C(=O)NCC(=O)NC1CC1)c1nc2ccc(-c3ccnc(F)c3)cc2s1 (stereo not shown) [Example 311, N-[(cyclopropyl-carbamoyl)methyl]-2-[6-(2-fluoropyridin-4-yl)-1,3-benzothiazol-2-yl]-2-(2-methoxyethane-sulfonyl)acetamide]
IC50: 94 nM

Structure (SMILES): COC(=O)Nc1ccc(-c2cc3sc(C(C(=O)NCC(=O)NC4CC4)S(C)(=O)=O)nc3cc2F)c(C)c1 (stereo not shown) [Example 34, methyl N-{4-[2-({[(cyclopropyl-carbamoyl)methyl]carbamoyl} (methanesulfonyl)methyl)-5-fluoro-1,3-benzothiazol-6-yl]-3-methylphenyl} carbamate]
IC50: 4 nM

Structure (SMILES): CS(=O)(=O)C(C(=O)NCC(=O)NC1CC1)c1nc2cc(F)c(-c3ccc(NC(=O)OCC4CC4)cc3)cc2s1 (stereo not shown) [Example 527, cyclopropylmethyl N-{4-[2-({[(cyclopropyl-carbamoyl)methyl]carbamoyl}) (methanesulfonyl)methyl)-5-fluoro-1,3-benzothiazol-6-yl]phenyl} carbamate]
IC50: 9 nM

Structure (SMILES): CC(C)S(=O)(=O)C(C(=O)NCC(=O)NC1CC1)c1nc2cc(C(F)(F)F)c(-c3ccnn3C)cc2s1 (stereo not shown) [Example 180, N-[(cyclopropyl-carbamoyl)methyl]-2-[6-(1-methyl-1H-pyrazol-5-yl)-5-(trifluoromethyl)-1,3-benzothiazol-2-yl]-2-(propane-2-sulfonyl) acetamide]
IC50: 88 nM

Structure (SMILES): O=C(CNC(=O)C(c1nc2cc(-c3ccc(F)nc3)ccc2s1)S(=O)(=O)Cc1ccccc1)NC1CC1 (stereo not shown) [Example 14, N-[(cyclopropyl-carbamoyl)methyl]-2-[5-(6-fluoropyridin-3-yl)-1,3-benzothiazol-2-yl]-2-phenylmethane-sulfonylacetamide]
IC50: 23 nM

Structure (SMILES): Cc1cc(-c2cc(F)c3nc(C(C(=O)NCC(=O)NC4CC4)S(=O)(=O)N(C)C)sc3c2)cnn1 (stereo not shown) [Example 490, N-[(cyclopropyl-carbamoyl)methyl]-2-(dimethyl-sulfamoyl)-2-[4-fluoro-6-(6-methypylridazin-4-yl)-1,3-benzothiazol-2-yl]acetamide]
IC50: 207 nM

Structure (SMILES): COC(=O)Nc1cccc(-c2cc(F)c3nc(C(C(=O)NCC(=O)NC4CC4)S(=O)(=O)C(C)C)sc3c2)c1 (stereo not shown) [Example 280, methyl N-{3-[2-({[(cyclopropyl-carbamoyl)methyl]carbamoyl} (propane-2-sulfonyl)methyl)-4-fluoro-1,3-benzothiazol-6-yl]phenyl}carbamate]
IC50: 6 nM

Structure (SMILES): COCCS(=O)(=O)C(C(=O)NCC(=O)NC1CC1)c1nc2cc(F)c(-c3cccc(F)n3)cc2s1 (stereo not shown) [Example 181, N-[(cyclopropyl-carbamoyl)methyl]-2-[5-fluoro-6-(6-fluoropyridin-2-yl)-1,3-benzothiazol-2-yl]-2-(2-methoxyethane-sulfonyl) acetamide]
IC50: 143 nM
